Patent US20230158161A1, “DRUG DELIVERY SYSTEMS COMPRISING AN INTRAOCULAR PRESSURE LOWERING AGENT, A NEUROTROPHIC AGENT, A C-TYPE NATRIURETIC PEPTIDE, A NATRIURETIC PEPTIDE RECEPTOR-B, AN APOPTOSIS SIGNALING FRAGMENT INHIBITOR OR A FAS-LIGAND INHIBITOR FOR TREATING GLAUCOMA OR OCULAR HYPERTENSION” (Cella Therapeutics, LLC, priority 2020, published 2023)

Tested on: African Green monkeys
Assay: IOP after intravitreal injection in African Green monkeys, PBS in the fellow eye as control
Type: in vivo, African Green monkey
Protocol: Eight African Green monkeys were screened to identify 4 animals with high-normal IOP. Animals were anesthetized with ketamine 10 mg/kg and Xylazine 0.5 mg/kg. Bimatoprost acid 100 ng in 50 μl was injected intravitreally in one eye through a 30-gauge syringe using a shelved technique, and 50 μl of phosphate buffered saline (PBS) was injected into the fellow eye as a concurrent control on days 0, 1, 2 at 8:30 pm. The bimatoprost acid dose was escalated to 200 ng in 100 μl, with the same volume of PBS given to the fellow eye, on days 3 (8:30 pm) and 4 (5:30 pm). IOP was measured with a Tonovet tonometer at 8:30 am, 11:30 am and 8:30 pm on day 1; 8:30 am, 11:30 am and 5:30 pm on day 4; and at 8:30 am on days 2, 3 and 5. The person measuring the IOP was masked to treatment assignment. Slit lamp exams were performed on day 0, 1 and 5. OCTs were performed at baseline and day 5.

With `O=C(O)CCC/C=C\C[C@@H]1[C@@H](/C=C/[C@@H](O)CCc2ccccc2)[C@H](O)C[C@@H]1O` [bimatoprost acid] as the compound, how does the “reduction in IOP compared with the fellow eye” value (100 ng intravitreal, one of four animals (B392) responded, at 1 timepoint) read?
Its value is 30%.

And the “IOP reduced in the treated eye compared with the fellow eye receiving PBS” value (200 ng intravitreal, animal B392, day 5)?
The value was 52%.

And the “reduction in IOP compared with the fellow eye” value (200 ng intravitreal, three of four animals responded, at 1 or more timepoints)?
The value was 30%.

What about the IOP response (animal B300, 100 ng and 200 ng intravitreal) of the same compound?
The IOP response was “did not respond to either dose”.

And the “IOP lowering effect, overall conclusion” value (intravitreal, dose-response between the 100 ng and 200 ng doses)?
The value was “clear IOP lowering-effect”.
